Test results: patent US20230322805A1, “NOVEL PYRIMIDODIAZEPINE DERIVATIVES OR USES THEREOF” (SPARK BIOPHARMA, INC., priority 2020, published 2023)

Key:
DNAJC3 = molecular target: T1, DNAJC3 (Homo sapiens, UniProt Q13217); test: TS-FITGE thermal stability shift; format: binding; parameters: endogenous in cells; host or cells: HEK293 BiFC-tau cells (TS-FITGE, CETSA); details: 10 μM, 200 nM thapsigargin, 3 hours, HEK293 BiFC-tau cells
T1 sequence (Q13217 32-504): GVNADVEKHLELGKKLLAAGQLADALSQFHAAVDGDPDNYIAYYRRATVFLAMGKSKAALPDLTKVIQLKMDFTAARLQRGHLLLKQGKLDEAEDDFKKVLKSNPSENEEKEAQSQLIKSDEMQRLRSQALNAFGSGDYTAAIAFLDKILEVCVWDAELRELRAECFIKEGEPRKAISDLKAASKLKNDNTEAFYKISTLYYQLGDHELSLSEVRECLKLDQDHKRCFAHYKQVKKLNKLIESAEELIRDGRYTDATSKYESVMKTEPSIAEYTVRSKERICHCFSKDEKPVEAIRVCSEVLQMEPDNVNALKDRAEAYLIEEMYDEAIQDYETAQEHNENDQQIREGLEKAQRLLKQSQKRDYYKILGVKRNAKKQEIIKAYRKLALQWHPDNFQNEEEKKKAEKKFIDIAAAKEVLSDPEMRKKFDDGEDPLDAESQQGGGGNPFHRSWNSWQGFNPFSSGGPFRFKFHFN
Procedure: (§1) HEK293 BiFC-tau cells were treated with dimethylsulfoxide (DMSO, 0.1%) and a compound according to the present invention (10 μM) in the presence of thapsigargin (200 nM) for 3 hours. The cell suspension was heated at the indicated temperature range for 3 minutes and then at 25° C. for 3 minutes. The heated cells were washed with PBS and resuspended in lysis buffer A (0.4% NP-40 in PBS supplemented with protease inhibitor cocktail). For cell lysis, cell suspensions were freeze-thawed in liquid nitrogen three times. The cell lysate was washed by centrifugation at 20000 g, 4° C. for 20 minutes. Protein concentration of the soluble fraction was quantified by Pierce BCA protein assay. After precipitating 50 μg of protein with cold acetone, it was centrifuged at […] and 4° C. for 7 minutes. The residual pellet was resuspended in 10 μl of conjugation buffer (30 mM Tris-HCl at pH 8.6, 30 mM thiourea, 7 M urea and 4% w/v CHAPS). 1 μl of 0.4 mM Cy2-N-hydroxysuccinimide(Cy2-NHS) (for DMSO-treated group), Cy3-NHS (for SB1607-treated group) or Cy5-NHS (for SB1617-treated group) was mixed with the protein and incubated at 4° C. for 45 minutes. […] Protein spot locations and fluorescence signals were analyzed with DeCyder 2D software ver. […]

PDIA3 = molecular target: T2, PDIA3 (Homo sapiens, UniProt P30101); test: TS-FITGE thermal stability shift; format: binding; parameters: endogenous in cells; host or cells: HEK293 BiFC-tau cells (TS-FITGE, CETSA, PEG-maleimide assay); details: 10 μM, 200 nM thapsigargin, 3 hours, HEK293 BiFC-tau cells
T2 sequence (P30101 25-505): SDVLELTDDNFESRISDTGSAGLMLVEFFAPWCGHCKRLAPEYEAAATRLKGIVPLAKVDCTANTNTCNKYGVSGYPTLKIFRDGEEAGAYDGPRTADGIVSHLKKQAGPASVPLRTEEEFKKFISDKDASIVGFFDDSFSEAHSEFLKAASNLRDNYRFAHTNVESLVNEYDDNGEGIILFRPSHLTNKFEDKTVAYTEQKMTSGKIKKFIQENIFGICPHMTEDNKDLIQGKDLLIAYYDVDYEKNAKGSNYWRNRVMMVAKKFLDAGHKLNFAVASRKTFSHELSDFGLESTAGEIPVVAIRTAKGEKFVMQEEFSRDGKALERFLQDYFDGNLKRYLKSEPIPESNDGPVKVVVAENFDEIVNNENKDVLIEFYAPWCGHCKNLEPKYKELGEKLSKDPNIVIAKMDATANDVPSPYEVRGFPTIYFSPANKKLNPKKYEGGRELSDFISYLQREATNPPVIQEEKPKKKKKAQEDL
Procedure: as §1

Htt-Q74 = test: Level of aggregation-prone mutant protein after treatment; format: cell-based; details: SB1617 treatment
[1] = tested on: PERK signaling (p-PERK, p-elF2a, ATF4); test: Time course of PERK activation in SH-SY5Y cells (immunoblot); format: cell-based, human
Procedure: 4-2. PDIA3 and DNAJC3 play a role in regulating tau aggregation by inhibiting the PERK signaling pathway. Accordingly, human neuroblastoma SH-SY5Y cells were treated with 10 μM SB1617, treated with or without thapsigargin, and PERK activation was confirmed over time.
The stress-response potency of SB1617 may be due to upregulation of PDIA3 and DNAJC3 levels or changes in the redox state of partner proteins under ER stress conditions.

`CN(Cc1ccc(Cl)cc1)c1ncnc2c1[C@@H]1OC[C@H](CN2)N1S(=O)(=O)c1ccc([N+](=O)[O-])cc1` [Compound 117] was tested, and the “thermal stability of protein (TS-FITGE)” value (DNAJC3) was “thermal stability of the protein was improved”, the “thermal stability of protein (TS-FITGE)” value (PDIA3) was “thermal stability of the protein was improved” and the “mutation level of Htt-Q74” value (Htt-Q74) was “downregulated”. The “PERK activation over time” value ([1]; 10 μM SB1617, with thapsigargin) was “prolonged PERK activation” and the “activation of downstream PERK signaling” value ([1]; 10 μM SB1617, without thapsigargin (absence of cell stress)) was “not significant”.
